Experimental findings from patent US20110230428A1, “CERTAIN KYNURENINE-3-MONOOXYGENASE INHIBITORS, PHARMACEUTICAL COMPOSITIONS, AND METHODS OF USE THEREOF” (priority 2008, published 2011) are described below.

T1 sequence (Q91WN4 whole entry): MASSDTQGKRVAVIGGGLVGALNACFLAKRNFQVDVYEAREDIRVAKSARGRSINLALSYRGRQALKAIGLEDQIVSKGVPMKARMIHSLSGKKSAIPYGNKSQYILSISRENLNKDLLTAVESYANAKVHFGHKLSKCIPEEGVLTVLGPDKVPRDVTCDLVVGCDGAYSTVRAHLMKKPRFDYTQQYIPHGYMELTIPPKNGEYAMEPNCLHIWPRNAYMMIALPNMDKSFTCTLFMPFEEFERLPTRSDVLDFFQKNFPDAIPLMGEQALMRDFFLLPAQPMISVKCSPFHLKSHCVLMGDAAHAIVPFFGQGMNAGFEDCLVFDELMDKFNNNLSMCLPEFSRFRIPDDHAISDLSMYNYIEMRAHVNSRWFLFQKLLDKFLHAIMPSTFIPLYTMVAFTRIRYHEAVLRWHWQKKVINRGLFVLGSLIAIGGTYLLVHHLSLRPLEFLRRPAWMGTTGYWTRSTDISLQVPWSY

The test has as its target T1, KMO mouse enzyme (Mus musculus, UniProt Q91WN4).
T1 construct: KMO enzyme prepared at Evotec from mouse liver (4-6 weeks old) via mitochondria isolation; from tissue; host or cells: mouse liver (4-6 weeks old), isolated mitochondria
Briefly: KMO mouse enzyme assay: L-Kynurenine hydroxylation to 3OH-KYN by LC/MS. Format: biochemical. The settings on record: compound at 10 μM; KMO from mouse liver mitochondria; read-out: INH.Mouse @ 10 μM. On the procedure: A method of monitoring L-Kynurenine (KYN) hydroxylation to form 3-Hydroxy-Kynurenine (3OH-KYN) by LC/MS is described. Product is quantified by multiple reaction monitoring (MRM method).
• Compound: Stock concentrations: 10 mM in 100% DMSO • Enzyme: KMO enzyme prepared at Evotec from mouse liver (4-6 weeks old) via mitochondria isolation as described in the literature • Substrate: L-Kynurenine (Sigma: Cat# K3750, stock concentration: 10 mM in 100 mM potassium phosphate buffer, pH 7.4)
• Buffer: 100 mM potassium phosphate, pH 7.4, 200 μM NADPH, 0.4 U/ml G6P-DH (Glucose 6-phosphate Dehydrogenase), 3 mM G6P (D-Glucose 6-phosphate) • Assay Volume: 40 μl • Plate Format: 384 well plate, transparent (Matrix) • Read-Out: product (3OH-KYN) quantification using product specific MRM • Reader: LC/MS/MS
• prepare serial dilution (factor 3) of compound in 100% DMSO (top concentration=10 mM, 100% DMSO) • [8 points: 10 mM; 3.33 mM; 1.11 mM; 0.37 mM; 0.12 mM; 0.04 mM; 0.0137 mM; 0.0045 mM, 0.0015 mM] • prepare […] solution of each compound concentration (top concentration 300 μM, 3% DMSO) in assay buffer • [concentrations: 300 μM; 100 μM; 33.3 μM; 11.1 μM; 3.70 μM; 1.23 μM; 0.41 μM; 0.137 μM] • prepare substrate (10 mM) at concentration of 1 mM in assay buffer • assay mix: 4 μl compound/well of each concentration+24 μl assaybuffer/well+8 μl KMO mouse enzyme+4 μl 1 mM substrate (final concentration=100 μM) • [final compound top concentration: 30 μM; 0.3% DMSO] • [final compound bottom concentration: 0.0137 μM; 0.3% DMSO] • positive control: 4 μl 50 μM FCE28833 in assay buffer, 0.5% DMSO [final assay concentration=5 μM]+24 μl assaybuffer/well+8 μl KMO mouse enzyme+4 μl 1 mM substrate [final concentration=100 μM] • negative control: 28 μl assay buffer/well+8 μl KMO mouse enzyme+4 μl 1 mM substrate [final concentration=100 μM] • incubate 40 min at RT • add 40 μl/well 10% trichloro acetic acid in water to stop the assay and precipitate protein • centrifuge plate for 3 min at 4000 rpm • product detection by LC/MS (injection of 20 μl/well, 2 fold overfill of the 10 μl sample loop) Data analysis: IC50's are calculated using automated fitting algorithm (A+Analysis).
Using procedures similar to those described herein, the following compounds were assayed for activity.
`CON=C(CCC(=O)Nc1ccncc1)c1ccc(Cl)c(Cl)c1` [4-(3,4-Dichloro-phenyl)-4-methoxyimino-N-pyridin-4-yl-butyramide]: the inhibition at 10 µM worked out at 76.5%. Regarding `CO/N=C(\CCC(=O)Oc1cccnc1)c1ccc(Cl)c(Cl)c1` [4-(3,4-Dichloro-phenyl)-4-methoxyimino-butyric acid pyridin-3-yl ester], the inhibition at 10 µM was 105%.

Consider `CNC(=O)CC/C(=N\OC)c1ccc(Cl)c(Cl)c1` [4-(3,4-Dichloro-phenyl)-4-methoxyimino-N-methyl-butyramide], for which the inhibition at 10 µM came out at 93.7%. Next, `CO/N=C(\CCC(=O)OC)c1ccc(Cl)c(Cl)c1` [4-(3,4-Dichloro-phenyl)-4-methoxyimino-butyric acid methyl ester]: 106%; `CON=C(CCC(=O)Nc1cncc(C)c1)c1ccc(Cl)c(Cl)c1` [4-(3,4-Dichloro-phenyl)-4-methoxyimino-N-(5-methyl-pyridin-3-yl)-butyramide]: 102%; `CON=C(CCC(=O)NCCO)c1ccc(Cl)c(Cl)c1` [4-(3,4-Dichloro-phenyl)-N-(2-hydroxy-ethyl)-4-methoxyimino-butyramide]: 95.7%.

In the case of `CO/N=C(\CCC(=O)NC1CCN(C(=O)OC(C)(C)C)CC1)c1ccc(Cl)c(Cl)c1` [4-[4-(3,4-Dichloro-phenyl)-4-methoxyimino-butyrylamino]-piperidine-1-carboxylic acid tert-butyl ester], the inhibition at 10 µM was 75.2%. Next, `CCO/N=C(\CCC(=O)OC)c1ccc(Cl)c(Cl)c1` [4-(3,4-Dichloro-phenyl)-4-ethoxyimino-butyric acid methyl ester]: 107%. For the compound `CON=C(CCCC(=O)OC)c1ccc(Cl)c(Cl)c1` [5-(3,4-Dichloro-phenyl)-5-methoxyimino-pentanoic acid methyl ester], the inhibition at 10 µM turned out to be 61.2%.

For `CO/N=C(\CCC(=O)OC1CCOCC1)c1ccc(Cl)c(Cl)c1` [4-(3,4-Dichloro-phenyl)-4-methoxyimino-butyric acid tetrahydro-pyran-4-yl ester], the inhibition at 10 µM came to 102%.

Take `CON=C(CCCC#N)c1ccc(Cl)c(Cl)c1` [5-(3,4-Dichloro-phenyl)-5-methoxyimino-pentanenitrile]: the inhibition at 10 µM is 71.5%. Consider `CON=C(CCC(=O)Nc1ncccn1)c1ccc(Cl)c(Cl)c1` [4-(3,4-Dichloro-phenyl)-4-methoxyimino-N-pyrimidin-2-yl-butyramide], for which the inhibition at 10 µM came out at 101%.

In the case of `CON=C(CCC(=O)N1CCCCC1)c1ccc(Cl)c(Cl)c1` [1-(3,4-Dichloro-phenyl)-4-piperidin-1-yl-butane-1,4-dione 1-(O-methyl-oxime)], the inhibition at 10 µM was 60.4%. For the compound `CO/N=C(\CCC(=O)NC1CC1)c1ccc(Cl)c(Cl)c1` [N-Cyclopropyl-4-(3,4-dichloro-phenyl)-4-methoxyimino-butyramide], the inhibition at 10 µM turned out to be 100%. As to `CON=C(CCC#N)c1ccc(Cl)c(Cl)c1` [4-(3,4-Dichloro-phenyl)-4-methoxyimino-butyronitrile], the inhibition at 10 µM was found to be 74.6%. With `CON=C(CCC(=O)Nc1cccnn1)c1ccc(Cl)c(Cl)c1` [4-(3,4-Dichloro-phenyl)-4-methoxyimino-N-pyridazin-3-yl-butyramide], the inhibition at 10 µM turned out to be 101%. Consider `CC(C)(C)OC(=O)NCCON=C(CCC(=O)O)c1ccc(Cl)c(Cl)c1` [4-[2-tert-Butoxycarbonylamino-ethoxyimino]-4-(3,4-dichloro-phenyl)-butyric acid], for which the inhibition at 10 µM amounted to 61.9%.

`CON=C(CCC(C)=O)c1ccc(Cl)c(Cl)c1` [1-(3,4-Dichloro-phenyl)-pentane-1,4-dione 1-(O-methyl-oxime)]: the inhibition at 10 µM is 77.7%. For the compound `CON=C(CCC(=O)Nc1ccc(F)nc1)c1ccc(Cl)c(Cl)c1` [4-(3,4-Dichloro-phenyl)-N-(6-fluoro-pyridin-3-yl)-4-methoxyimino-butyramide], the inhibition at 10 µM came to 91.7%.
